Experiments:
Test in all cases: Test A pre-/postemergence herbicide test
morningglory = type: in vivo, Ipomoea spp.; details: for Morningglory plant response rating: Preemergence, visual rating on 0 to 100 scale (0 no effect, 100 complete control)
Source text: (§1) Seeds of plant species selected from bamyardgrass (Echinochloa crus-galli), kochia (Kochia scoparia), ragweed (common ragweed, Ambrosia elatior), ryegrass, Italian (Italian ryegrass, Lolium multiflorum), crabgrass, large (large crabgrass Digitaria sanguinalis), giant foxtail (Setaria faberii), morningglory (Ipomoea spp.), pigweed (Amaranthus retroflexus), velvetleaf (Abutilon theophrasti), wheat (Triticum aestivum), and corn (Zea mays) were planted into a blend of loam soil and sand and treated preemergence with a directed soil spray using test chemicals formulated in a non-phytotoxic solvent mixture which included a surfactant. At the same time, plants selected from these crop and weed species and also blackgrass (Alopecurus myosuroides), and galium (catchweed bedstraw, Galium aparine) were planted in pots containing the same blend of loam soil and sand and treated with postemergence applications of test chemicals formulated in the same manner. Plants ranged in height from 2 to 10 cm and were in the one- to two-leaf stage for the postemergence treatment. Treated plants and untreated controls were maintained in a greenhouse for approximately 10 days, after which time all treated plants were compared to untreated controls and visually evaluated for injury. Plant response ratings, summarized in Table A, are based on a 0 to 100 scale where 0 is no effect and 100 is complete control. A dash (-) response means no test result.

barnyardgrass = type: in vivo, Echinochloa crus-galli; details: for Barnyardgrass plant response rating: Preemergence, visual rating on 0 to 100 scale (0 no effect, 100 complete control)
Source text: as §1

giant foxtail = type: in vivo, Setaria faberii; details: for Foxtail, Giant plant response rating: Preemergence, visual rating on 0 to 100 scale (0 no effect, 100 complete control)
Source text: as §1

pigweed = type: in vivo, Amaranthus retroflexus; details: for Pigweed plant response rating: Preemergence, visual rating on 0 to 100 scale (0 no effect, 100 complete control)
Source text: as §1

velvetleaf = type: in vivo, Abutilon theophrasti; details: for Velvetleaf plant response rating: Preemergence, visual rating on 0 to 100 scale (0 no effect, 100 complete control)
Source text: as §1

corn = type: in vivo, Zea mays; details: for Corn plant response rating: Preemergence, visual rating on 0 to 100 scale (0 no effect, 100 complete control)
Source text: as §1

wheat = type: in vivo, Triticum aestivum; details: for Wheat plant response rating: Preemergence, visual rating on 0 to 100 scale (0 no effect, 100 complete control)
Source text: as §1

crabgrass, large = type: in vivo, Digitaria sanguinalis; details: for Crabgrass, Large plant response rating: Preemergence, visual rating on 0 to 100 scale (0 no effect, 100 complete control)
Source text: as §1

[1] = Postemergence, 125 g ai/ha, 0 to 100 scale, 0 no effect, 100 complete control
[2] = Postemergence, 500 g ai/ha, 0 to 100 scale (0 no effect, 100 complete control)
[3] = preemergence, 500 g ai/ha, 0 to 100 scale
[4] = preemergence, 500 g ai/ha, 0 to 100 scale (0 no effect, 100 complete control)

Row | SMILES | Plant response rating, Morningglory (morningglory; [1]) | Plant response rating, Morningglory (morningglory; [2]) | Morningglory plant response rating (morningglory; 125 g ai/ha) | Plant response rating, Morningglory (morningglory; [3]) | Plant response rating, Barnyardgrass (barnyardgrass; [1]) | Plant response rating, Barnyardgrass (barnyardgrass; [2]) | Barnyardgrass plant response rating (barnyardgrass; 125 g ai/ha) | Plant response rating, Barnyardgrass (barnyardgrass; [4]) | Plant response rating, Foxtail, Giant (giant foxtail; [1]) | Plant response rating, Foxtail, Giant (giant foxtail; [2]) | Foxtail, Giant plant response rating (giant foxtail; 125 g ai/ha) | Plant response rating, Foxtail, Giant (giant foxtail; [3]) | Plant response rating, Pigweed (pigweed; [1]) | Plant response rating, Pigweed (pigweed; [2]) | Pigweed plant response rating (pigweed; 125 g ai/ha) | Plant response rating, Pigweed (pigweed; [3]) | Plant response rating, Velvetleaf (velvetleaf; [1]) | Plant response rating, Velvetleaf (velvetleaf; [2]) | Velvetleaf plant response rating (velvetleaf; 125 g ai/ha) | Plant response rating, Velvetleaf (velvetleaf; [3]) | further results
1 | CC1NC(=O)C(C(=O)Nc2ccccc2C(F)(F)F)C1c1ccc(F)c(F)c1 (mixture of isomers) [Compound 9] | 0 | 0 | 0 | 0 | 30 | 50 | 20 | 60 | 0 | 70 | 70 | 90 | 0 | 0 | 0 | 0 | 0 | 0 | 0 | 0 | Plant response rating, Corn (corn; [1]): 0; Plant response rating, Corn (corn; [2]): 0; Corn plant response rating (corn; 125 g ai/ha): 0; Plant response rating, Corn (corn; [3]): 0; Plant response rating, Wheat (wheat; [1]): 0; Plant response rating, Wheat (wheat; [2]): 0; Wheat plant response rating (wheat; 125 g ai/ha): 0; Plant response rating, Wheat (wheat; [3]): 0; Plant response rating, Crabgrass, Large (crabgrass, large; [1]): 40; Plant response rating, Crabgrass, Large (crabgrass, large; [2]): 70; Crabgrass, Large plant response rating (crabgrass, large; 125 g ai/ha): 80; Plant response rating, Crabgrass, Large (crabgrass, large; [3]): 90
2 | O=C1NCC(c2ccc(F)c(F)c2)C1C(=O)Nc1cccc(C(F)(F)F)c1 (racemic) [Compound 13] | 0 | 0 | 0 | 0 | 0 | 30 | 0 | 50 | 0 | 0 | 0 | 30 | 0 | 0 | 0 | 0 | 0 | 0 | 0 | 0 | Plant response rating, Corn (corn; [1]): 0; Plant response rating, Corn (corn; [2]): 0; Corn plant response rating (corn; 125 g ai/ha): 0; Plant response rating, Corn (corn; [3]): 0; Plant response rating, Wheat (wheat; [1]): 0; Plant response rating, Wheat (wheat; [2]): 0; Wheat plant response rating (wheat; 125 g ai/ha): 0; Plant response rating, Wheat (wheat; [3]): 0; Plant response rating, Crabgrass, Large (crabgrass, large; [1]): 0; Plant response rating, Crabgrass, Large (crabgrass, large; [2]): 60; Crabgrass, Large plant response rating (crabgrass, large; 125 g ai/ha): 50; Plant response rating, Crabgrass, Large (crabgrass, large; [3]): 80
3 | O=C1NCC(c2ccccc2F)C1C(=O)Nc1ccccc1F (racemic) [Compound 85] | 0 | 0 | 0 | 0 | 0 | 20 | 0 | 30 | 0 | 0 | 0 | 50 | 0 | 0 | 0 | 0 | 0 | 0 | 0 | 0 | Plant response rating, Corn (corn; [1]): 0; Plant response rating, Corn (corn; [2]): 0; Corn plant response rating (corn; 125 g ai/ha): 0; Plant response rating, Corn (corn; [3]): 0; Plant response rating, Wheat (wheat; [1]): 0; Plant response rating, Wheat (wheat; [2]): 0; Wheat plant response rating (wheat; 125 g ai/ha): 0; Plant response rating, Wheat (wheat; [3]): 0; Plant response rating, Crabgrass, Large (crabgrass, large; [1]): 0; Plant response rating, Crabgrass, Large (crabgrass, large; [2]): 50; Crabgrass, Large plant response rating (crabgrass, large; 125 g ai/ha): 30; Plant response rating, Crabgrass, Large (crabgrass, large; [3]): 80
4 | O=C1NCC(c2ccccc2Cl)C1C(=O)Nc1ccccc1F (racemic) [Compound 88] | 0 | 0 | 0 | 0 | 0 | 40 | 0 | 50 | 0 | 0 | 0 | 30 | 0 | 0 | 0 | 30 | 0 | 0 | 0 | 0 | Plant response rating, Corn (corn; [1]): 0; Plant response rating, Corn (corn; [2]): 0; Corn plant response rating (corn; 125 g ai/ha): 0; Plant response rating, Corn (corn; [3]): 0; Plant response rating, Wheat (wheat; [1]): 0; Plant response rating, Wheat (wheat; [2]): 0; Wheat plant response rating (wheat; 125 g ai/ha): 0; Plant response rating, Wheat (wheat; [3]): 0; Plant response rating, Crabgrass, Large (crabgrass, large; [1]): 0; Plant response rating, Crabgrass, Large (crabgrass, large; [2]): 60; Crabgrass, Large plant response rating (crabgrass, large; 125 g ai/ha): 40; Plant response rating, Crabgrass, Large (crabgrass, large; [3]): 80
5 | O=C1NCC(c2ccc(Cl)cc2Cl)C1C(=O)Nc1ccccc1F (racemic) [Compound 91] | 0 | 0 | 0 | 0 | 0 | 20 | 0 | 20 | 0 | 20 | 0 | 40 | 0 | 0 | 0 | 0 | 0 | 0 | 0 | 0 | Plant response rating, Corn (corn; [1]): 0; Plant response rating, Corn (corn; [2]): 0; Corn plant response rating (corn; 125 g ai/ha): 0; Plant response rating, Corn (corn; [3]): 0; Plant response rating, Wheat (wheat; [1]): 0; Plant response rating, Wheat (wheat; [2]): 0; Wheat plant response rating (wheat; 125 g ai/ha): 0; Plant response rating, Wheat (wheat; [3]): 0; Plant response rating, Crabgrass, Large (crabgrass, large; [1]): 30; Plant response rating, Crabgrass, Large (crabgrass, large; [2]): 50; Crabgrass, Large plant response rating (crabgrass, large; 125 g ai/ha): 40; Plant response rating, Crabgrass, Large (crabgrass, large; [3]): 60

Source: patent US10294202B2, “Pyrrolidinones as herbicides” (FMC Corporation, priority 2013, dated 2019)
